According to EP3414211B1, “PLASTER COMPOSITION” (priority 2016, dated 2017):

Key:
[1] = Foamability (foam volume) after one minute of foam generation with an Ultra Turrax system at 8200 rpm; assay type: physicochemical
Protocol: The "foamability", i.e. the volume of foam produced, and the foam stability were tested for a number of combinations of foaming agent and co-surfactant. Specifically, a number of foaming solutions were prepared containing various amounts of foaming agent and co-surfactant. The following foaming agents were tested: FA1 mixture of linear sodium octyl sulfate, sodium decyl sulfate, and sodium dodecyl sulfate as described in EP1328485. FA2 sodium n-decyl sulfate (Empicol® 0758, available from Huntsman) FA3 alkyl ether sulfate (Millifoam® H, available from Huntsman) FA4 STEOL ® DES32-IS (alkyl ether sulfate based surfactant, available from Stepan)
Each of the foaming agents was mixed with 5 wt%, 10 wt%, and 20 wt% (relative to the weight of foaming agent) of the following co-surfactants: CS1 lauramine oxide (dodecyldimethylamine oxide), available under the trade name Empigen® OB (Huntsman Performance Products) CS2 C8-10alkyl polyglucoside available under the trade name Glucopon 215® (comparative example)
(§1) For each mixture, foamability (foam volume) and foam stability were measured after one minute of foam generation with an Ultra Turrax system at 8200 rpm.

[2] = Foam stability (foam half-life: time to recover one half of the original liquid volume from the foam); assay type: physicochemical
Protocol: as §1
Also the foam stability was tested, by measuring the foam half-life, i.e. the amount of time it takes to recover one half of the original volume of liquid from a measured volume of foam.

[3] = co-surfactant mixed at 5, 10, 20 wt% with foaming agents

| Foam volume increase (%) ([1]; 0 % CS1 (baseline)) | Foam volume ([1]; 0 % CS1 (wt% relative to total foaming agent and co-surfactant)) | Foam volume ([1]; 5 % CS1) | Foam volume increase (%) ([1]; 5 % CS1, versus 0 % CS1) | Foam volume ([1]; 10 % CS1) | Foam volume increase (%) ([1]; 10 % CS1, versus 0 % CS1) | Foam volume ([1]; 20 % CS1) | Foam volume increase (%) ([1]; 20 % CS1, versus 0 % CS1) | Half-life ([2]; 0 % CS1) | Half-life increase (%) ([2]; 0 % CS1 (baseline)) | Half-life ([2]; 5 % CS1) | Half-life increase (%) ([2]; 5 % CS1, versus 0 % CS1) | Half-life ([2]; 10 % CS1) | Half-life increase (%) ([2]; 10 % CS1, versus 0 % CS1) | Half-life ([2]; 20 % CS1) | Half-life increase (%) ([2]; 20 % CS1, versus 0 % CS1) | Structure (SMILES) | effect of co-surfactant on foamability (foam volume) of the foaming agents [1, 3] | effect of co-surfactant on foam stability [2, 3] |
| --- | --- | --- | --- | --- | --- | --- | --- | --- | --- | --- | --- | --- | --- | --- | --- | --- | --- | --- |
|  |  |  |  |  |  |  |  |  |  |  |  |  |  |  |  | CCCCCCCCCCCC[N+](C)(C)[O-] [CS1, dodecyldimethylamine oxide] | significantly increase | highest foam stability improvement |
| 0% | 530 mL | 562 mL | 6% | 599 mL | 13% | 588 mL | 11% | 5.78 min | 0% | 6.18 min | 7% | 6.87 min | 11% | 8.4 min | 36% | CCCCCCCCCCOS(=O)(=O)[O-].[Na+] [FA2, sodium n-decyl sulfate] |  |  |
